Measured values taken from patent publication US7790896B2, “RNA-selective probes for live cell imaging of nuclear structure and function” (New York University, priority 2006, dated 2010).

Legend:
[1] = tested on: Hela, A549, 3T3, and 3T3-L1; test: Optimization of working concentration and imaging properties, live cell staining; assay type: cell-based, human, mouse; settings: 20, 10, 5 and 1 μM tested in four cell lines
Experimental: (§1) All cell staining imaging followed the same procedure. Generally, dyes in dry state were first dissolved in DMSO to obtain the stock solution. The stock solutions were then added directly to the cell culture wells to reach the desired concentration. Total DMSO was lower than 0.1%. After adding dyes, cells were incubated at 37° C. in 5% CO2 for 25 minutes. The medium was then removed and cells were rinsed with fresh medium twice. The cells were then imaged at ambient temperature in the medium. Exposure time was kept less than 5 seconds and adjusted to each dye.
In fluorescence microscopic imaging studies, it is always desirable to use as little dye as possible to stain organelles in order to maximize specificity and minimize dye toxicity and cell death. To determine the lowest working concentration of each dye, four different concentrations (20 μM, 10 μM, 5 μM, and 1 μM) were tested in four cell lines (Hela, A549, 3T3, and 3T3-L1). Dyes E36, E144, and F112 were imaged using FITC channel, and F22 was imaged using Cy3 channel. Generally, a quality fluorescence signal for each dye was produced using a concentration of 5 μM for E36, E144, and F22 and 10 μM for F112 (Table 5). It was interesting to observe that compound F22 was brighter in 3T3 cells, and a concentration of 1 μM was sufficient for a clear image (FIG. 4). […] Little photobleaching and no obvious cell morphology or viability changes were observed during the tests.

A549 = test: Phototoxicity test, MTS assay of irradiated cells; assay type: cell-based, human; settings: dye 5 μM, irradiated 5 minutes, 24 hours incubation
Experimental: Dye DMSO stock solutions were diluted by fresh medium into working concentration (5 μM). Cells were cultured in 96-well plate for 12 hours before experiments. The cell medium was exchanged with dye medium solutions. Cells were then incubated in at 37° C., in 5% CO2 for 25 minutes before being irradiated by fluorescent light using the appropriate working filter (FITC for E36 and E144; Cy3 for F22) for 5 minutes. The plates were then incubated at 37° C. in 5% CO2 The cell viability was measured by MTS assay after 5 and 24 hours following the cytotoxicity measurement procedure. Duplicated experiments have been tested.
Phototoxicity is also an important factor in evaluating applicability of new fluorescent probes for live cell imaging. […] Nevertheless, it is desirable for the new imaging probes to be as non-phototoxic as possible. To investigate the phototoxicity of the present RNA-selective compounds, cellular viability of irradiated cells using MTS assay was assessed. Cells were incubated with dyes (E36, E144, and F22) in their working concentration (5 μM), and then irradiated with the appropriate filters using the fluorescent microscope (FITC for E36 and E144; Cy3 for F22). While light exposures used for imaging experiments are generally a few seconds long at most, cells were irradiated for 5 minutes for prolonged toxicity measurement. […]

3T3 cells = test: Live cell staining working concentration in 3T3 cells; assay type: cell-based, mouse
Experimental: as §1
In fluorescence microscopic imaging studies, it is always desirable to use as little dye as possible to stain organelles in order to maximize specificity and minimize dye toxicity and cell death. To determine the lowest working concentration of each dye, four different concentrations (20 μM, 10 μM, 5 μM, and 1 μM) were tested in four cell lines (Hela, A549, 3T3, and 3T3-L1). Dyes E36, E144, and F112 were imaged using FITC channel, and F22 was imaged using Cy3 channel. Generally, a quality fluorescence signal for each dye was produced using a concentration of 5 μM for E36, E144, and F22 and 10 μM for F112 (Table 5). It was interesting to observe that compound F22 was brighter in 3T3 cells, and a concentration of 1 μM was sufficient for a clear image (FIG. 4). […]

[2] = Fluorescence spectrum in TE buffer of dyes selected from live cell imaging; assay type: physicochemical; settings: dye 10 μM in TE buffer
[3] = tested on: Hela, A549, 3T3, and 3T3-L1 cells; test: Dye cell-tolerability: cell viability and morphology changes observed; assay type: cell-based, human, mouse; settings: 20 μM, after 8 hours
Experimental: Low cytotoxicity is one of the most important criteria for live cell imaging probes. All four compounds were tested at 20 μM, 10 μM, 5 μM, and 1 μM in Hela, A549, 3T3, and 3T3-L1 cells. Cell viability and morphology changes were observed during 2, 8, and 24 hours. Only dye E36 was toxic to A549, 3T3, and 3T3-L1 cells at high concentration (20 μM) after 8 hours.

Compound	Optimum Concentration for live cell imaging [1]	Phototoxicity (A549)	Concentration sufficient for a clear image (3T3 cells)	SPECTRUM EM [2]	SPECTRUM EX [2]	Toxicity (cell viability and morphology changes) [3]
COc1cc(OC)c(/C=C/c2ccc3ccccc3[n+]2C)c(OC)c1 [Dye E144]	5 µM	–	–	–	–	–
COc1ccc2c(ccc(/C=C/c3ccc(N(C)C)cc3)[n+]2C)c1 [Dye F22]	–	not A549	1 µM	–	–	–
C[n+]1c(/C=C/c2c[nH]c3ccccc23)ccc2ccccc21 [Dye E36]	5 µM	–	–	550 nm	450 nm	toxic
